{"source": "patent US20250255867A1", "about": "(Kadmon Corporation, LLC, priority 2022, published 2025)", "conditions": "Cohort 1 200 mg QD", "method": "All responses were assessed by the investigators.\nReported Adverse Events. […] All-cause mortality data collected during the study were assessed for all enrolled participants. Disease progression related death was not reported as AE.\nNumber of Participants With Treatment-emergent Adverse Events (TEAEs), and Treatment-emergent Serious Adverse Events (TESAEs). […] TEAEs included both SAEs and non-SAEs. […] Analysis was performed on safety population which included all participants who received at least 1 dose of study medication."}
{"molecule": "CC(C)NC(=O)COc1cccc(-c2nc(Nc3ccc4[nH]ncc4c3)c3ccccc3n2)c1", "note": "[Belumosudil, 2-{3-[4-(1H-indazol-5-ylamino)-2-quinazolinyl]phenoxy}-N-(propan-2-yl) acetamide]", "values": [{"measurement": "SAE Lipomatosis, # events", "value": 1}, {"measurement": "SAE Lipomatosis, affected/at risk", "value": "1/17"}, {"measurement": "SAE Metastases to meninges, # events", "value": 1}, {"measurement": "SAE Metastases to meninges, affected/at risk", "value": "1/17"}, {"measurement": "SAE Muscular weakness, # events", "value": 0}, {"measurement": "SAE Muscular weakness, affected/at risk", "value": "0/17"}, {"measurement": "SAE Myelodysplastic syndrome, # events", "value": 0}, {"measurement": "SAE Myelodysplastic syndrome, affected/at risk", "value": "0/17"}, {"measurement": "SAE Non-cardiac chest pain, # events", "value": 0}, {"measurement": "SAE Non-cardiac chest pain, affected/at risk", "value": "0/17"}, {"measurement": "SAE Obliterative bronchiolitis, # events", "value": 1}, {"measurement": "SAE Obliterative bronchiolitis, affected/at risk", "value": "1/17"}, {"measurement": "SAE Pericardial effusion, # events", "value": 0}, {"measurement": "SAE Pericardial effusion, affected/at risk", "value": "0/17"}, {"measurement": "SAE Pleural effusion, # events", "value": 0}, {"measurement": "SAE Pleural effusion, affected/at risk", "value": "0/17"}, {"measurement": "SAE Pneumonia viral, # events", "value": 0}, {"measurement": "SAE Pneumonia viral, affected/at risk", "value": "0/17"}, {"measurement": "SAE Pneumonia, # events", "value": 2}, {"measurement": "SAE Pneumonia, affected/at risk", "value": "1/17"}, {"measurement": "SAE Pregnancy of partner, # events", "value": 0}, {"measurement": "SAE Pregnancy of partner, affected/at risk", "value": "0/17"}, {"measurement": "SAE Proteinuria, # events", "value": 1}, {"measurement": "SAE Proteinuria, affected/at risk", "value": "1/17"}, {"measurement": "SAE Respirovirus test positive, # events", "value": 0}, {"measurement": "SAE Respirovirus test positive, affected/at risk", "value": "0/17"}, {"measurement": "SAE Small intestinal obstruction, # events", "value": 0}, {"measurement": "SAE Small intestinal obstruction, affected/at risk", "value": "0/17"}, {"measurement": "SAE Stenotrophomonas infection, # events", "value": 0}, {"measurement": "SAE Stenotrophomonas infection, affected/at risk", "value": "0/17"}, {"measurement": "SAE Urinary retention, # events", "value": 0}, {"measurement": "SAE Urinary retention, affected/at risk", "value": "0/17"}, {"measurement": "SAE Urinary tract infection, # events", "value": 0}, {"measurement": "SAE Urinary tract infection, affected/at risk", "value": "0/17"}, {"measurement": "SAE Varicella zoster virus infection, # events", "value": 0}, {"measurement": "SAE Varicella zoster virus infection, affected/at risk", "value": "0/17"}, {"measurement": "SAE total, affected/at risk", "value": "5/17"}, {"measurement": "Sinus pain: # Events", "value": 2}, {"measurement": "Sinus pain: Affected/At Risk", "value": "2/17"}, {"measurement": "Sinus pain: Affected/At Risk (%)", "value": "(11.76%)"}, {"measurement": "Sinusitis: # Events", "value": 1}, {"measurement": "Sinusitis: Affected/At Risk", "value": "1/17"}, {"measurement": "Sinusitis: Affected/At Risk (%)", "value": "(5.88%)"}, {"measurement": "Skin abrasion: # Events", "value": 0}, {"measurement": "Skin abrasion: Affected/At Risk", "value": "0/17"}, {"measurement": "Skin abrasion: Affected/At Risk (%)", "value": "(0%)"}, {"measurement": "Skin lesion: # Events", "value": 0}, {"measurement": "Skin lesion: Affected/At Risk", "value": "0/17"}, {"measurement": "Skin lesion: Affected/At Risk (%)", "value": "(0%)"}, {"measurement": "Skin papilloma: # Events", "value": 1}, {"measurement": "Skin papilloma: Affected/At Risk", "value": "1/17"}, {"measurement": "Skin papilloma: Affected/At Risk (%)", "value": "(5.88%)"}, {"measurement": "Spinal compression fracture: # Events", "value": 1}, {"measurement": "Spinal compression fracture: Affected/At Risk", "value": "1/17"}, {"measurement": "Spinal compression fracture: Affected/At Risk (%)", "value": "(5.88%)"}, {"measurement": "Squamous cell carcinoma of skin: # Events", "value": 0}, {"measurement": "Squamous cell carcinoma of skin: Affected/At Risk", "value": "0/17"}, {"measurement": "Squamous cell carcinoma of skin: Affected/At Risk (%)", "value": "(0%)"}, {"measurement": "Stomatitis: # Events", "value": 2}, {"measurement": "Stomatitis: Affected/At Risk", "value": "1/17"}, {"measurement": "Stomatitis: Affected/At Risk (%)", "value": "(5.88%)"}, {"measurement": "Superior vena cava syndrome: # Events", "value": 0}, {"measurement": "Superior vena cava syndrome: Affected/At Risk", "value": "0/17"}, {"measurement": "Superior vena cava syndrome: Affected/At Risk (%)", "value": "(0%)"}, {"measurement": "Tachycardia: # Events", "value": 0}, {"measurement": "Tachycardia: Affected/At Risk", "value": "0/17"}, {"measurement": "Tachycardia: Affected/At Risk (%)", "value": "(0%)"}, {"measurement": "Tendonitis: # Events", "value": 0}, {"measurement": "Tendonitis: Affected/At Risk", "value": "0/17"}, {"measurement": "Tendonitis: Affected/At Risk (%)", "value": "(0%)"}, {"measurement": "Testicular pain: # Events", "value": 1}, {"measurement": "Testicular pain: Affected/At Risk", "value": "1/17"}, {"measurement": "Testicular pain: Affected/At Risk (%)", "value": "(5.88%)"}, {"measurement": "Testicular swelling: # Events", "value": 1}, {"measurement": "Testicular swelling: Affected/At Risk", "value": "1/17"}, {"measurement": "Testicular swelling: Affected/At Risk (%)", "value": "(5.88%)"}, {"measurement": "Thoracic spinal stenosis: # Events", "value": 1}, {"measurement": "Thoracic spinal stenosis: Affected/At Risk", "value": "1/17"}, {"measurement": "Thoracic spinal stenosis: Affected/At Risk (%)", "value": "(5.88%)"}, {"measurement": "Thrombocytopenia: # Events", "value": 0}, {"measurement": "Thrombocytopenia: Affected/At Risk", "value": "0/17"}, {"measurement": "Thrombocytopenia: Affected/At Risk (%)", "value": "(0%)"}, {"measurement": "Thrombocytosis: # Events", "value": 1}, {"measurement": "Thrombocytosis: Affected/At Risk", "value": "1/17"}, {"measurement": "Thrombocytosis: Affected/At Risk (%)", "value": "(5.88%)"}, {"measurement": "Tinea pedis: # Events", "value": 0}, {"measurement": "Tinea pedis: Affected/At Risk", "value": "0/17"}, {"measurement": "Tinea pedis: Affected/At Risk (%)", "value": "(0%)"}, {"measurement": "Tooth fracture: # Events", "value": 0}, {"measurement": "Tooth fracture: Affected/At Risk", "value": "0/17"}, {"measurement": "Tooth fracture: Affected/At Risk (%)", "value": "(0%)"}, {"measurement": "Total Other Adverse Events: Affected/At Risk", "value": "17/17"}, {"measurement": "Total Other Adverse Events: Affected/At Risk (%)", "value": "(100%)"}, {"measurement": "Transfusion reaction: # Events", "value": 1}, {"measurement": "Transfusion reaction: Affected/At Risk", "value": "1/17"}, {"measurement": "Transfusion reaction: Affected/At Risk (%)", "value": "(5.88%)"}, {"measurement": "Tremor: # Events", "value": 3}, {"measurement": "Tremor: Affected/At Risk", "value": "2/17"}, {"measurement": "Tremor: Affected/At Risk (%)", "value": "(11.76%)"}, {"measurement": "Type 2 diabetes mellitus: # Events", "value": 1}, {"measurement": "Type 2 diabetes mellitus: Affected/At Risk", "value": "1/17"}, {"measurement": "Type 2 diabetes mellitus: Affected/At Risk (%)", "value": "(5.88%)"}, {"measurement": "Ulcerative keratitis: # Events", "value": 0}, {"measurement": "Ulcerative keratitis: Affected/At Risk", "value": "0/17"}, {"measurement": "Ulcerative keratitis: Affected/At Risk (%)", "value": "(0%)"}, {"measurement": "Upper respiratory tract infection: # Events", "value": 16}, {"measurement": "Upper respiratory tract infection: Affected/At Risk", "value": "9/17"}, {"measurement": "Upper respiratory tract infection: Affected/At Risk (%)", "value": "(52.94%)"}, {"measurement": "Upper-airway cough syndrome: # Events", "value": 0}, {"measurement": "Upper-airway cough syndrome: Affected/At Risk", "value": "0/17"}, {"measurement": "Upper-airway cough syndrome: Affected/At Risk (%)", "value": "(0%)"}, {"measurement": "Urinary retention: # Events", "value": 0}, {"measurement": "Urinary retention: Affected/At Risk", "value": "0/17"}, {"measurement": "Urinary retention: Affected/At Risk (%)", "value": "(0%)"}, {"measurement": "Urinary tract infection: # Events", "value": 0}, {"measurement": "Urinary tract infection: Affected/At Risk", "value": "0/17"}, {"measurement": "Urinary tract infection: Affected/At Risk (%)", "value": "(0%)"}, {"measurement": "Urinary tract pain: # Events", "value": 0}, {"measurement": "Urinary tract pain: Affected/At Risk", "value": "0/17"}, {"measurement": "Urinary tract pain: Affected/At Risk (%)", "value": "(0%)"}, {"measurement": "Urine output decreased: # Events", "value": 1}, {"measurement": "Urine output decreased: Affected/At Risk", "value": "1/17"}, {"measurement": "Urine output decreased: Affected/At Risk (%)", "value": "(5.88%)"}, {"measurement": "Vascular access complication: # Events", "value": 0}, {"measurement": "Vascular access complication: Affected/At Risk", "value": "0/17"}, {"measurement": "Vascular access complication: Affected/At Risk (%)", "value": "(0%)"}, {"measurement": "Vertigo: # Events", "value": 2}, {"measurement": "Vertigo: Affected/At Risk", "value": "2/17"}, {"measurement": "Vertigo: Affected/At Risk (%)", "value": "(11.76%)"}, {"measurement": "Vision blurred: # Events", "value": 0}, {"measurement": "Vision blurred: Affected/At Risk", "value": "0/17"}, {"measurement": "Vision blurred: Affected/At Risk (%)", "value": "(0%)"}, {"measurement": "Vomiting: # Events", "value": 4}, {"measurement": "Vomiting: Affected/At Risk", "value": "2/17"}, {"measurement": "Vomiting: Affected/At Risk (%)", "value": "(11.76%)"}, {"measurement": "Weight decreased: # Events", "value": 1}, {"measurement": "Weight decreased: Affected/At Risk", "value": "1/17"}]}
